“Also recorded” adds a separate entry of the source.
Key:
Format in all cases: cell-based
[1] = system: murine adenocarcinoma (1471.1) cells; test: Cytotoxicity after illumination, WST-8 assay; settings: incubated 4 hours, DMEM with 10% charcoal stripped FBS, illuminated 30 min, Mce6 equivalents, read-out: IC50 (μM) (Mean ± SD)
Protocol: The IC50 (concentration that inhibits growth by 50%) was determined utilizing a WST-8 assay. Four thousand cells were seeded into 96 well plates and incubated overnight in a humidified atmosphere containing 5% CO2. […] The incubation period was 10 hours in the case of the HPMA copolymer-bound Mce6 conjugates. After the period of incubation, the media containing the drug was removed and 100 μL of fresh media was added and the cells were promptly illuminated for 30 min. The light source was three ENH Tungsten halogen lamps (120 V/250 W) placed in parallel, attenuated by three band-pass interference filters (Melles Griot Co., Carlsbad, Calif.). The light energy was approximately 2 mW cm^−2 as determined using a radiometer.
After illumination, the cells were incubated in a humidified atmosphere containing 5% CO2 for 24 hours. The media was replaced with 100 μL fresh media containing 10 μL of WST-8. After two hours incubation, the absorbance was read at 450 nm with background correction at 630 nm. Untreated cells served as 100% viable cells, whereas media served as background. Percentage of viable cells was calculated by dividing the mean absorbance of each well by the absorbance of the untreated cells. Linear regression was performed utilizing the linear portion of the growth inhibition curve to determine the IC50 dose.

[2] = system: nucleus (DAPI nuclear marker); test: Confocal fluorescence microscopy, subcellular localization; settings: 24 hours incubation at 37° C.
Protocol: Subcellular localization was determined using confocal fluorescence microscopy. 150000 cells were seeded on previously sterilized glass coverslips in 35 mm dishes 24 hours before incubation with the drug. […] The cells were then fixed with 3% paraformaldehyde for 20 minutes at room temperature. DAPI (4′,6-diamidino-2-phenylindole) (600 nM) was incubated with the cells and used as a nuclear marker. The cells were mounted with SlowFade Light Antifade medium (Molecular Probes, Eugene, Oreg.) and sealed as described previously. The cells were then imaged on a Zeiss (Thornwood, N.Y.) LSM 510 confocal imaging system with an Axioplan 2 microscope (100× plan-apo objective, NA=1.4, oil) and a titanium sapphire multiphoton laser (mesochlorin, excitation 800 nm, emission 650 nm low pass filter; DAPI, excitation 800 nm, emission 461 nm band pass filter). The settings for all the confocal systems were adjusted so that control cells yielded dark images.
In these images, DAPI is represented by […] fluorescence. […] Mce6 is stained red in color. […] These two windows separately indicate the subcellular localization of Mce6 and DAPI respectively. These 2 windows are superimposed in window D to display a composite image.

[3] = target: T1, green fluorescent protein tagged-GR (GFP-GR) (Rattus norvegicus, UniProt P06536, C656G); test: GFP-GR system, biorecognition (nuclear translocation of GFP tagged GR); settings: fluorescence microscopy, 37° C., Mce6 at 20 μM and 30 μM, images up to 30 minutes
T1 construct: expressed in transfected cells
T1 sequence (P06536 1-795 C656G): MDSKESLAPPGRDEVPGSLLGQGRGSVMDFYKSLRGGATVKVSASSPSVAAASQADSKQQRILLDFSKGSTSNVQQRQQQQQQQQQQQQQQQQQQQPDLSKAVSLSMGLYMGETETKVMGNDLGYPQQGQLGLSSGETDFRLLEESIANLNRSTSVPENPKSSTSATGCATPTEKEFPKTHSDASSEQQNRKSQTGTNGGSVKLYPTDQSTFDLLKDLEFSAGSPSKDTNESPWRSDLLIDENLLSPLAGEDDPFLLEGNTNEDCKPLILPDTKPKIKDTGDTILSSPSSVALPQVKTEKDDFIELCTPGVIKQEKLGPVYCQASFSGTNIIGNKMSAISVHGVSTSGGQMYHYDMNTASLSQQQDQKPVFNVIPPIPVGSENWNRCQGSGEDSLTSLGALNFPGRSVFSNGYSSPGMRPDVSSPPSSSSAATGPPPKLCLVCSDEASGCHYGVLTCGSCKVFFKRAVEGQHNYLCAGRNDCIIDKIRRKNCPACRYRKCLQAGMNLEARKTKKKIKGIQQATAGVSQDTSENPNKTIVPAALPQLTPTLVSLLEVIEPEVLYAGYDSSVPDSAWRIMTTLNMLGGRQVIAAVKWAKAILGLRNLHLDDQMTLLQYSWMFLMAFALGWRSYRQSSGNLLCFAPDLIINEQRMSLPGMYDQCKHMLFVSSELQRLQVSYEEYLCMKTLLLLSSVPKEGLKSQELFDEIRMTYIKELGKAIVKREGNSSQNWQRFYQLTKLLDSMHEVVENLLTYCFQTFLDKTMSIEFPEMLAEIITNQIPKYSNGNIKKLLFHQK
Protocol: This system involves the generation of GFP labeled GR in the cell. The cells are then treated with the drug and the change in the localization of the fluorescently tagged GR is followed. Cells were transfected with GFP-GR plasmids as previously. Briefly, 5×10^6 cells were transfected with 2 μg of the GFP-GR plasmid plus carrier DNA using an Electrosquare porator ECM 830 system (BTX, San Diego, Calif.). The electroporation was performed using 3 pulses each of 135 V for 10 milliseconds, […]. Cells were allowed to recover on ice for 5 minutes and were then diluted with phenol red-free DMEM with 10% charcoal stripped FBS and plated on a clear cover glass (Corning no. 1, 22 mm^2) into live cell chambers (Lab-Tek II chambered cover glass with cover). These cells were incubated in cell culture conditions for 24 hrs. […] The import of GFP-receptor-conjugate complexes was monitored using an Olympus IX701F inverted fluorescence microscope and an EGFP filter set (Chroma Technology Corp.) (exciter 480 nm, emitter 510 nm, beam splitter 495 nm). Cells were maintained at 37° C. using a Nevtek ASI 400 Air Stream Incubator (variable temperature control) attached to a temperature probe as previously. Cells were photographed using an F-View Monochrome CCD camera.

GR = test: MMTV luciferase assay; settings: data not shown
[4] = listed as Cort-Lys-Mce6 derivative

Mesochlorin e6 monoethylene diamine disodium salt [Mce6, reference compound]
IC50 [1]: 5.3 ± 0.93 µM | subcellular localization of Mce6 fluorescence ([2]; disodium salt): faint Mce6 fluorescence in the nucleus; also recorded: predominantly located in the cytoplasm | redistribution of GFP tagged GR from the cytoplasm to the nucleus ([3]; disodium salt): cannot cause redistribution of the GFP tagged GR; also recorded: did not induce any change in the localization of the receptors

alpha-N-(Cortisol-C17-carbamoyl)-Lysyl-Mesochlorin ethyl amide [Cort-Lys-Mce6]
ability to bind the GR and induce nuclear translocation (GR): independently verified | IC50 [1]: 1.96 ± 0.17 µM | subcellular localization of Mce6 fluorescence [2]: located in the cytoplasm and in the nucleus | subcellular localization of Mce6 fluorescence [2, 4]: colocalization of Mce6 and DAPI | redistribution of GFP tagged GR from the cytoplasm to the nucleus [3]: increase in the fluorescence level in the nucleus | redistribution of GFP tagged GR from the cytoplasm to the nucleus [3, 4]: able to shuttle GFP tagged GR from the cytoplasm to the nucleus

Reference: US20070287680A1, “Combined Active and Passive Targeting of Biologically Active Agents” (University of Utah Research Foundation, priority 2004, published 2007)
